Patent publication US5002948A, “3-[4-[4-substituted-1-piperazinyl]-1-butyl]-1H-2,3-dihydroindoles” (H. Lundbeck A/S, priority 1988, dated 1991)

Tests used:
5-HT1A [1] = target: T1, 5-HT1A (Rattus norvegicus, UniProt P19327); assay: Antagonism of the discriminative stimulus properties induced by 8-OHDPAT in rats; format: in vivo, Male Wistar rats; set-up: from tissue; host or cells: whole living animal, male Wistar rats, s.c. dosing; settings: s.c. before 8-OHDPAT, rats trained at 0.4 mg/kg i.p., inhibition of drug responding; for ED50: rat, sc, read-out: ED50, 8-OH DPAT cue antagonism; for ED50, 8-OH DPAT cue antagonism: 0.4 mg/kg
T1 sequence (P19327 1-422): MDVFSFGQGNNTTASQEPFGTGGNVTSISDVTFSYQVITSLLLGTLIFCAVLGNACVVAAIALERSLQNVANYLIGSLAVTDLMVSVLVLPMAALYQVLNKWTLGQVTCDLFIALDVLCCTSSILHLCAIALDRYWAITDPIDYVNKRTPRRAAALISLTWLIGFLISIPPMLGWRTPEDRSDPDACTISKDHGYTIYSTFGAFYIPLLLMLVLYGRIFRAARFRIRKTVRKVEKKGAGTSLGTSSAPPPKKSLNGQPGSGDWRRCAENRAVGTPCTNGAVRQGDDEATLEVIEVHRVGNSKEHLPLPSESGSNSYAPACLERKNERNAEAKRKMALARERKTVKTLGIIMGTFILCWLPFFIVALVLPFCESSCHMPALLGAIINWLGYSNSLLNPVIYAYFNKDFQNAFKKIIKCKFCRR
Procedure: ANTAGONISM OF THE DISCRIMINATIVE STIMULUS PROPERTIES INDUCED BY 8-OHDPAT IN RATS.
This test model is used to determine the antagonist effects of a test compound on 5-HT1A receptors in vivo. A related method is described by Tricklebank, M. D., J. Neill, E. J. Kidd and J. R. Fozard, Eur. J. Pharmacol. 133, 47-56, 1987; Arnt. J., Pharmacology & Toxicology 64, 165-172, 1989.
Male Wistar rats are trained to discriminate between 8-OHDPAT (0.4 mg/kg, i.p., 15 min. pretreatment) and physiological saline in operant chambers equipped with two response levers. Between the levers a dipper is placed, where water rewards (0.1 ml) are presented. The rats are water deprived for at least 24 h and work in a fixed ratio (FR) schedule (final FR=32).
Following 8-OHDPAT administration responding is reinforced only on a designated (drug) lever, whereas responding on the opposite lever has no consequences. Following saline administration responding is reinforced on the lever opposite to the drug lever. Drug and saline trials alternate randomly between training days, although the same treatment is given maximally at 3 consecutive days. The level of discrimination occuracy is expressed as the per cent drug responses and is calculated as the number of correct responses×100 divided by the sum of the correct and incorrect responses before the first reward. When stable occuracy (mean correct responding=90 per cent; individual rats at least 75 per cent correct responding) is obtained test sessions are included between training days. Test compound is injected s.c. at appropriate time before 8-OHDPAT and the test begins 15 min after 8-OHDPAT injection. The test trial is terminated when a total of 32 responses are made on either lever or when 20 min have elapsed. No reward is given and the rats have free access to water for 20-30 min after the test. The effects are expressed as per cent inhibition of drug responding. Only results from rats making at least 10 responses on one lever are included in data analysis. Furthermore, only test sessions in which at least half of the rats respond are included.
The per cent inhibition of drug response obtained for each dose of test compound is used to calculate ED50 values by log-probit analysis.

5-HT1A [2] = target: T1, 5-HT1A; assay: Inhibition of 5-methoxy-N,N-dimethyltryptamine (5-MeODMT) induced 5-HT syndrome in rats; format: in vivo, Male Wistar rats; set-up: Male Wistar rats (Mol:Wist) weighing 170-240 g are used; from tissue; host or cells: whole living animal, male Wistar rats (Mol:Wist), s.c. dosing; settings: 30 min before 5-MeODMT 5 mg/kg s.c., per cent inhibition of piano playing syndrome; for ED50: rat, sc
Source text: INHIBITION OF 5-METHOXY-N,N-[…] INDUCED 5-HT SYNDROME IN RATS
The so-called 5-HT syndrome is a characteristic behaviour pattern which is induced by 5-HT agonists with effects on 5-HT, possibly 5-HT1A receptors, although lack of specific antagonists make it difficult to evaluate specificity (Smith, L. M. and S. J. Peroutka, Pharmacol. Biochem. & Behaviour 24, 1513-1519, 1986; Tricklebank, M. et al., Eur. J. Pharmacol. 117, 15-24, 1985).
Male Wistar rats (Mol:Wist) weighing 170-240 g are used. Test substrate is injected subcutaneously 30 min. before 5-methoxy-N,N-dimethyltryptamine 5 mg/kg, s.c. Four rats are used for each dose. A control group pretreated with saline is included each test day. Ten, 15 and 20 min later the rats are observed for presence of serotonin (5-HT) syndrome: (1) forepaw treading ("piano playing"), (2) head weaving and (3) hindleg abduction. Further, flat motility is scored. Each part of the syndrome is scored as follows: marked effect (score 2), weak syndrome (score 1) and no effect (score 0). The scores of the three observation times are added. Thus the maximum obtainable score for four rats is 24. The effect of the test substance is expressed as per cent inhibition relative to the control group.
The per cent inhibition of the piano playing syndrome is used as the response, and ED50 values are calculated by log-prohibit analysis.

SMILES	ED50 (5-HT1A [1])	ED50 (5-HT1A [2])	ED50, 8-OH DPAT cue antagonism (5-HT1A [1])	ED50, inhibition of 5-MeODMT induced 5-HT syndrome (5-HT1A [2]; s.c.)
CCOc1ccccc1N1CCN(CCCCC2CNc3ccccc32)CC1 (stereo not drawn) [Compound 3c, 3-[4-[4-(2-ethoxyphenyl)-1-piperazinyl]-1-butyl]-1H-2,3-dihydroindole]	4.8 µmol/kg	0.48 µmol/kg		
c1ccc2c(c1)NCC2CCCCN1CCN(c2cccc3c2OCCO3)CC1 (stereo not drawn) [Compound 3j, 3-[4-[4-(1,4-benzodioxan-5-yl)-1-piperazinyl]-1-butyl]-1H-2,3-dihydroindole]	8.8 µmol/kg	3.1 µmol/kg		
c1ccc2c(c1)NCC2CCCCN1CCN(c2cccc3c2OCC3)CC1 (stereo not drawn) [Compound 3i, 3-[4-[4-(2,3-dihydro-7-benzofuranyl)-1-piperazinyl]-1-butyl]-1H-2,3-dihydroindole]	> 9 µmol/kg	4 µmol/kg		
COc1ccccc1N1CCN(CCCCC2CNc3ccccc32)CC1 (single isomer, unassigned; (-)) [Compound 7b, (-)-3-[4-[4-(2-methoxyphenyl)-1-piperazinyl]-1-butyl]-1H-2,3-dihydroindole]			> 3.4 µmol/kg	1.3 µmol/kg
COc1ccccc1N1CCN(CCCCC2CNc3ccccc32)CC1 (stereo not drawn) [Compound 3a, 3-[4-[4-(2-methoxyphenyl)-1-piperazinyl]-1-butyl]-1H-2,3-dihydroindole]	7.2 µmol/kg	1.9 µmol/kg		
COc1ccccc1N1CCN(CCCCC2CNc3ccccc32)CC1 (single isomer, unassigned; (+)) [Compound 7a, (+)-3-[4-[4-(2-methoxyphenyl)-1-piperazinyl]-1-butyl]-1H-2,3-dihydroindole]		2.1 µmol/kg	1.0 µmol/kg	
